Laboratory results published in patent US12721832B2, “Anti-senescence plant polyphenol drug downregulating senescence-related secretory phenotype and use thereof” (BYHEALTH CO., LTD., priority 2021, dated 2026).

Experiments:
SASP factors = assay: qRT-PCR of SASP molecules in BLEO-induced senescent PSC27 cells at different PCC1 concentrations; format: cell-based, human
Method: All data are normalized results compared to the CTRL group. *, P<0.05; **, P<0.01.
Total RNA of cells in the growth phase or stasis phase was extracted with Trizol reagent, 1 mL Trizol was added to each T25 culture flask, the cell layer was scraped off with a cell scraper, transferred into a centrifuge tube, and mixed well until not viscous. […] After the RNA was quantified by a spectrophotometer, a small amount of total RNA was taken for 1% agarose electrophoresis to check the status and quality of the RNA. […]
Sample was loaded according to the above standard, and the reaction conditions were: 95° C. pre-denaturation for 15 seconds, then 95° C. for 5 seconds, 60° C. for 31 seconds, 40 cycles; melting curve conditions were 95° C. for 15 seconds, 60° C. for 30 seconds, 95° C. for 15 seconds. […] The expression of (3-actin was used as an internal reference. After the reaction was completed, the amplification of each gene was checked by software analysis, the corresponding threshold cycle number was derived, and the relative expression of each gene was calculated using the 2-AACt method. The peak and waveform of the melting curve was analyzed to determine whether the obtained amplification product was a specific single target fragment. […]

senescent PSC27 cells = assay: SA-β-Gal staining of PSC27 under increasing PCC1 concentration; format: cell-based, human
Method: Senescence-associated (3-galactosidase (SA-β-Gal) staining was performed following a previously reported procedure (Debacq-Chainiaux et al., 2009). Briefly, cells in culture dishes were washed with PBS and fixed at room temperature. Cells were fixed in 2% formaldehyde and 0.2% glutaraldehyde for 3 minutes. SA-β-Gal was used for staining with freshly prepared staining solution overnight at 37° C. Images were taken on the next day and the percentage of positive cells per unit area was calculated.

In the case of `Oc1cc(O)c2c(c1)O[C@H](c1ccc(O)c(O)c1)[C@H](O)[C@H]2c1c(O)cc(O)c2c1O[C@H](c1ccc(O)c(O)c1)[C@H](O)[C@H]2c1c(O)cc(O)c2c1O[C@H](c1ccc(O)c(O)c1)[C@H](O)C2` [PCC1, procyanidin C1], the “SASP inhibition at lower or higher concentrations” value (SASP factors; compared with 10 μM) is reported as “less effective”, the “working concentration inhibiting SASP development with the greatest efficiency” value (SASP factors; concentration gradient, senescent PSC27) is reported as 10 µM and the senescent cells remaining (senescent PSC27 cells; 150 μM PCC1, 80% staining positive without drug) is reported as 20%. For the same molecule, the “killing effect at 200 μM versus 150 μM” value (senescent PSC27 cells; 200 μM PCC1) was “not further enhanced”, the “concentration at which killing effect reached a threshold” value (senescent PSC27 cells; senescent PSC27) was 150 µM and the “concentration from which senescent cells are eliminated (SA-β-Gal staining)” value (senescent PSC27 cells; senescent PSC27, 0-200 μM) was 50 µM.
